Patent US5840728A, “Conformationally locked nucleoside analogs as antiherpetic agents” (priority 1997, dated 1998)
Converted amounts (≈) assume the structure as drawn. “And” between values parts separate entries of the source, which are not always exact repeats. Equal entries are not always repeated. Where two headings read alike, the source gives them in different places. Blank lines part the entries; values can stand above or below the compound they belong to.

Columns and labels:
[1] = system: HSV-1 (herpes simplex type 1); assay: microbe, parasite or virus in culture; settings: for activity against HSV-1: in words
Excerpt: (§1) Compounds 25 and 26 are (S)-methanocarba-T and (±)-(carba-T), respectively. (±)-carba-T was kindly provided by Dr. Y. Fulmer Shealy, Southern Research Institute, Birmingham, Ala. [drawing 5]

[2] = system: HSV-2 (herpes simplex type 2); assay: microbe, parasite or virus in culture; settings: for activity against HSV-2: in words
Excerpt: as §1

[3] = system: HCMV (human cytomegalovirus); assay: microbe, parasite or virus in culture; assay type: cell-based
[4] = Cytotoxicity in host cells / stationary cells (HFF); assay type: cell-based, human; settings: human, hff cells
Excerpt: (§2) ^d CC50 = cytotoxic concentration in μg/mL that produces 50%

[5] = system: EBV (Epstein-Barr virus); assay: microbe, parasite or virus in culture; assay type: cell-based; settings: for EC50: human gammaherpesvirus 4
Excerpt: as §1

[6] = system: HCMV (human cytomegalovirus); assay: microbe, parasite or virus in culture; assay type: cell-based; settings: for EC50: Human betaherpesvirus 5, Table 5, HCMV, plaque reduction assay
Excerpt: | ^f plaque reduction assay.

[7] = Cytotoxicity in growing (rapidly dividing) HFF; assay type: cell-based, human; settings: human, growing hff cells
[8] = system: Growing HFF; assay: Cytotoxicity in growing (rapidly dividing) HFF; assay type: cell-based, human; settings: in words; rapidly proliferating vs stationary cells
[9] = Cytotoxicity in EBV host cells (Daudi); assay type: cell-based; settings: human, Table 3, Daudi
[10] = Adenosine deaminase studies (deamination by ADA); assay type: biochemical; settings: adenosine deaminase; 50 μM compound; 1.0 unit ADA; 37° C., pH 7.1; read-out: t1/2 of deamination
Experimental: (§3) At timed intervals, 50 µl aliquots were quenched with 450 μl water containing the ADA inhibitor deoxycoformycin (4 μM). Hydrolysis kinetics of 4 were followed by high performance liquid chromatography (HPLC) with on-the-fly UV spectral characterization of all chromatographic components. […] The hydrolysis rate constant (k/ADA) and t^1/2 of decay or formation were obtained using GraphPAD Inpiot curve fitting program.

[11] = system: adenosine deaminase (ADA); assay: Adenosine deaminase studies (deamination by ADA); assay type: biochemical
Experimental: as §3

[12] = system: S-adenosylhomocysteine hydrolase (AdoHcy-ase); assay: Inhibition of S-adenosylhomocysteine hydrolase; assay type: biochemical
[13] = system: HFF (human foreskin fibroblasts); assay: Cytotoxicity in host cells / stationary cells (HFF); assay type: cell-based; settings: Table 5; host cell not given; listed as (N)-DMC-G
Excerpt: as §2

[14] = Human alphaherpesvirus 1, Table 5, HSV-1
[15] = Human alphaherpesvirus 2, Table 5, HSV-2
[16] = Human betaherpesvirus 5, Table 5, HCMV, read-out: EC50
[17] = in words, listed as (N)-methanocarba-A

EC50 [1, 14]: > 4 µg/mL | EC50 [2, 15]: > 4 µg/mL | EC50 [3, 16]: 88.9 µg/mL (≈ 375 µM)
SMILES: Nc1ccn([C@@]23C[C@H](O)[C@@H](CO)[C@@H]2C3)c(=O)n1 [(S)-DMC-C, reference compound]
SI (CC50/EC50) [1]: < 3.7 | SI (CC50/EC50) [2]: < 3.7 | SI (CC50/EC50) [3]: > 1.1

EC50 [1, 14]: 0.14 µg/mL (≈ 0.59 µM) | EC50 [2, 15]: > 20 µg/mL | EC50 [3, 16]: > 4 µg/mL
SMILES: Nc1ccn([C@H]2C[C@H](O)[C@]3(CO)C[C@H]23)c(=O)n1 [Compound 22]
SI (CC50/EC50) [1]: 486 | activity against HSV-1 [1]: very active against HSV-1 | SI (CC50/EC50) [2]: < 4.8 | activity against HSV-2 [2]: Little activity | SI (CC50/EC50) [3]: < 2.2 | activity against HCMV ([3]; in words): active against HCMV

EC50 [1, 14]: > 100 µg/mL | EC50 [2, 15]: > 100 µg/mL | EC50 [3, 16]: > 100 µg/mL
SMILES: O=c1ccn([C@H]2C[C@H](O)[C@]3(CO)C[C@H]23)c(=O)[nH]1 [Compound 21, (1R,2S,4S,5S)-1-(Hydroxymethyl)-2-hydroxy-4-(2,4-(1H,3H)-dioxopvrimidin-1-yl)bicyclor3.1.Olhexane]
SI (CC50/EC50) [1]: 1 | activity against HSV-1 [1]: inactive against all three viruses | SI (CC50/EC50) [2]: 1 | activity against HSV-2 [2]: inactive against all three viruses | SI (CC50/EC50) [3]: 1 | activity against HCMV ([3]; in words): inactive against all three viruses | CC50 ([4]; Table 5, host cell not given): > 100 µg/mL

SMILES: Nc1ncnc2c1ncn2[C@H]1C[C@H](O)[C@]2(CO)C[C@H]12 [Compound 4, (1 R,2S,4S,5S)-1-Hydroxymethyl-2-hydroxM-4-(6-amino-9-purinyl)bicyclo[3.1.0]hexane]
SI (CC50/EC50) [1]: > 1.4 | EC50 ([1]; Human alphaherpesvirus 1, Table 3, HSV-1, HFF): 72 µg/mL (≈ 276 µM) | EC50 [1, 14]: 72 µg/mL (≈ 276 µM) | activity against HSV-1 [1]: weak level of activity | SI (CC50/EC50) [2]: > 7.2 | EC50 ([2]; Human alphaherpesvirus 2, Table 3, HSV-2, HFF): 13.9 µg/mL (≈ 53.2 µM) | EC50 [2, 15]: 13.9 µg/mL (≈ 53.2 µM) | activity against HSV-2 ([2]; listed as (N)-methanocarba-A): exhibited antiviral effects against Human CMV, EBV and HSV-2 | SI (CC50/EC50) [3]: > 32.2 | potency against HCMV relative to gancyclovir ([3]; HCMV): only ten fold less potent than gancyclovir | antiviral selectivity ([3]; HCMV, compared with gancyclovir, in words): superibor to that of gancyclovir | EC50 ([3]; Human betaherpesvirus 5, Table 3, HCMV, HFF, read-out: EC50): 3.1 µg/mL (≈ 11.9 µM) | EC50 [3, 16]: 3.1 µg/mL (≈ 11.9 µM) | EC50 ([3]; Human betaherpesvirus 5, text, HCMV, read-out: EC50): 3.1 µg/mL (≈ 11.9 µM) | activity against HCMV [3, 17]: exhibited antiviral effects against Human CMV, EBV and HSV-2 | SI (CC50/EC50) [5]: > 66.7 | anti-EBV activity relative to acyclovir ([5]; EBV): only fifteen fold weaker than acyclovir | EC50 ([5]; EBV, read-out: EC50): 1.5 µg/mL (≈ 5.74 µM) | EC50 ([5]; Table 3, EBV, Daudi, viral capsid antigen, read-out: EC50): 1.5 µg/mL (≈ 5.74 µM) | activity against EBV [5, 17]: exhibited antiviral effects against Human CMV, EBV and HSV-2 | EC50 ([6]; read-out: EC50): 5.6 µg/mL (≈ 21.4 µM) | SI (CC50/EC50) ([6]; human foreskin fibroblasts): > 17.9 | CC50 ([4]; Table 3, HFF): > 100 µg/mL | CC50 ([4]; Table 5, host cell not given): > 100 µg/mL | CC50 ([7]; Table 3, Growing HFF, read-out: CC50): > 100 µg/mL | cytotoxicity to rapidly dividing cells [8]: equally non-toxic to rapidly proliferating cells and stationary cells | CC50 [9]: > 100 µg/mL | half-life at 50 µM [10]: 3.2 min | time to complete deamination ([11]; 50 μM compound, 1.0 unit ADA, 37° C., pH 7.1): 30 min | deamination by ADA ([11]; in words): complete deamination | inhibition ([12]; at 100 μM): 20% | inhibition ([12]; at 100 FM concentration (so in the source)): 20% | activity against AdoHcy-ase ([12]; in words): very low

SMILES: Nc1nc(O)c2ncn(COC(CO)CO)c2n1 [GCV, gancyclovir]
EC50 ([3]; Human betaherpesvirus 5, Table 3, HCMV, HFF, positive control, read-out: Positive Control EC50): 0.3 µg/mL (≈ 1.18 µM) | EC50 ([6]; control, read-out: Control EC50): 0.2 µg/mL (≈ 0.784 µM) | CC50 ([7]; rapidly dividing cells, read-out: CC50): 40 µg/mL (≈ 157 µM) | cytotoxicity to rapidly dividing cells [8]: increased cytotoxicity towards rapidly dividing cells

EC50 [1, 14]: 4 µg/mL (≈ 14.4 µM) | EC50 [2, 15]: 9.9 µg/mL (≈ 35.7 µM) | EC50 [3, 16]: > 20 µg/mL
SMILES: Nc1nc2c(ncn2[C@H]2C[C@H](O)[C@]3(CO)C[C@H]23)c(=O)[nH]1 [Compound 24]
SI (CC50/EC50) [1]: > 25 | activity against HSV-1 [1]: active against HSV-1 and HSV-2 | SI (CC50/EC50) [2]: > 10.1 | activity against HSV-2 [2]: active against HSV-1 and HSV-2 | SI (CC50/EC50) [3]: < 3.2 | activity against HCMV ([3]; in words): little activity against HCMV | CC50 ([4]; Table 5, host cell not given): > 100 µg/mL | CC50 [13]: 64.3 µg/mL (≈ 232 µM)

EC50 ([1]; Human alphaherpesvirus 1, read-out: ACV (EC50), Table 4, HSV-1, acyclovir control): 0.3 µg/mL (≈ 1.33 µM) | EC50 ([1]; Human alphaherpesvirus 1, read-out: Positive Control EC50, Table 3, HSV-1, HFF, positive control): 0.8 µg/mL (≈ 3.55 µM) | ACV (EC50) ([1]; Table 4, HSV-1, acyclovir control): 0.15 µg/mL | Control EC50 ([1]; Table 5, HSV-1, control): 0.20 µg/mL | EC50 ([2]; Human alphaherpesvirus 2, read-out: ACV (EC50), Table 4, HSV-2, acyclovir control): 0.8 µg/mL (≈ 3.55 µM) | EC50 ([2]; Human alphaherpesvirus 2, read-out: Positive Control EC50, Table 3, HSV-2, HFF, positive control): 4 µg/mL (≈ 17.8 µM) | ACV (EC50) ([2]; Table 4, HSV-2, acyclovir control): 0.60 µg/mL | Control EC50 ([2]; Table 5, HSV-2, control): 1.8 µg/mL and 1.5 µg/mL | EC50 ([5]; Table 3, EBV, Daudi, positive control, read-out: Positive Control EC50): 0.1 µg/mL (≈ 0.444 µM) | EC50 ([5]; Table 4, EBV, acyclovir control, read-out: ACV (EC50)): 0.1 µg/mL (≈ 0.444 µM)
SMILES: Nc1nc2c(ncn2COCCO)c(=O)[nH]1 [ACV, acyclovir, reference compound]
CC50 ([7]; Table 3, no virus, Growing HFF, positive control, read-out: Positive Control EC50 (line Growing HFF)): 40 µg/mL (≈ 178 µM)
